Measured values published in patent publication US6432948B1, “USE OF 7-(2-OXA-5,8-DIAZABICYLCO[4.3.0]NON-8-YL)-QUINOLONE CARBOXYLIC ACID AND NAPHTHYRIDON CARBOXYLIC ACID DERIVATIVES FOR THE TREATMENT OF HELIOBACTER PYLORI INFECTIONS AND ASSOCIATED GASTRODUODENAL DISEASES” (Bayer Aktiengesellschaft, priority 1996, dated 2002).
Values after ≈ are worked out from the molar mass of the structure shown. Like-named read-outs stand apart in the source and are kept apart here. Blank lines part the entries; values can stand above or below the compound they belong to.

How the values were obtained:
[1] = tested on: H. pylori clinical isolate 008; test: MIC, agar dilution test; format: cell-based; settings: Helicobacter pylori, Columbia agar or Basis 2 agar with 10% lysed horse blood, 37° C., 48-72 hours, read-out: MIC (mg/l) H. pylori 008
Description: For inoculation, fresh Helicobacter cultures from liquid culture or suspension of the bacteria from agar plates were used. The inoculated agar plates were incubated at 37° C. in an atmosphere containing 5-10% of CO2 for 48-72 hours.

H. pylori NCTC 1163 7 = test: MIC, agar dilution test; format: cell-based; settings: Helicobacter pylori
Description: . The test substances were tested in replica dishes, which contained falling concentrations of the active compound at in each case doubled dilution. For inoculation, fresh Helicobacter cultures from liquid culture or suspension of the bacteria from agar plates were used. The inoculated agar plates were incubated at 37° C. in an atmosphere containing 5-10% of CO2 for 48-72 hours. The MIC value (mg/l) which was read off indicates the lowest active compound concentration at which no growth was to be detected using the naked eye. The following Helicobacter isolates were used: H. felis ATCC 49179, H. pylori NCTC 1163 7, H. pylori clinical isolate 008.

H. felis ATCC 49179 = settings: for Eradication of H. felis in the mouse model, monotherapy: therapeutically used doses; for Clearance % / Clearance (animals cleared / animals per group): infected mice, 2 × 10 mg/kg, 70 day treatment as printed in table title (7 days elsewhere in the source), 5 animals per group
Description: The bacteria are administered by stomach tube as a suspension (0.1 ml containing 10^8-10^9 bacteria) 4 times in the course of 7 days. Alternatively to this, stomach homogenates of previously infected mice were used for infection.
3-5 days after establishment of the infection, the treatment with test preparations was begun. […] In some cases, the bacterial eradication was also determined 2-4 weeks after the end of treatment. Following the “CLO” test used in clinical diagnosis, a urease test on a microtitre basis was employed. Defined stomach biopsy samples were tested for colour change within 24 hours.

[2] = NCTC1163, agar dilution test, Columbia agar or Basis 2 agar with 10% lysed horse blood, 37° C., 48-72 hours, read-out: MIC (mg/l) H. pylori 11637

MIC [1]: 0.06 mg/L
MIC (H. pylori NCTC 1163 7; [2]): 0.06 mg/L
SMILES: COc1c(N2C[C@@H]3NCCO[C@@H]3C2)c(F)cc2c(=O)c(C(=O)O)cn(C3CC3)c12.Cl [Example 6, 1-Cyclopropyl-6-fluoro-8-methoxy-7-[(1R,6S)-2-oxa-5,8-diazabicyclo[4.3.0]non-8-yl]-1,4-dihydro-4-oxo-3-quinolinecarboxylic acid hydrochloride]

MIC [1]: 0.125 mg/L
MIC (H. pylori NCTC 1163 7; [2]): 0.06 mg/L
SMILES: COc1c(N2C[C@@H]3NCCO[C@H]3C2)c(F)cc2c(=O)c(C(=O)O)cn(C3CC3)c12.Cl [Example 13]

MIC [1]: 0.06 mg/L (≈ 0.137 µM)
MIC (H. pylori NCTC 1163 7; [2]): 0.06 mg/L (≈ 0.137 µM)
SMILES: O=C(O)c1cn(C2CC2)c2c(OC(F)F)c(N3CC4NCCOC4C3)c(F)cc2c1=O [Example 8, 1-Cyclopropyl-8-difluoromethoxy-6-fluoro-1,4-dihydro-7-((1S,6S)-2-oxa-5 8-diazabicyclo[4.3.0]non-8-yl)-4-oxo-3-quinolinecarboxylic acid]

SMILES: CCn1cc(C(=O)O)c(=O)c2cc(F)c(N3CCNC(C)C3)c(F)c21 (centres unmarked) [lomefloxacin, reference compound]
Eradication of H. felis in the mouse model, monotherapy (H. felis ATCC 49179; monotherapeutic treatment): not able to lead to an eradication

SMILES: O=C(O)c1cn(C2CC2)c2cc(N3CCNCC3)c(F)cc2c1=O [Ciprofloxacin, ciprofloxacin, reference compound]
MIC (H. pylori NCTC 1163 7; NCTC1163, read-out: MIC (mg/l) H. pylori 11637): 0.125 mg/L (≈ 0.377 µM)
Eradication of H. felis in the mouse model, monotherapy (H. felis ATCC 49179; monotherapeutic treatment): not able to lead to an eradication

melting point: 210 to 215 °C (dec.)
SMILES: Cl.O=C(O)c1cn([C@@H]2C[C@@H]2F)c2c(Cl)c(N3C[C@@H]4NCCO[C@@H]4C3)c(F)cc2c1=O

MIC [1]: 0.25 mg/L (≈ 0.588 µM)
MIC (H. pylori NCTC 1163 7; [2]): 0.06 mg/L (≈ 0.141 µM)
SMILES: CC(CF)(CF)n1cc(C(=O)O)c(=O)c2cc(F)c(N3C[C@@H]4NCCO[C@@H]4C3)cc21 [Example 4, 1-(1-Fluoromethyl-1-methyl-2-fluoroethyl)-6-fluoro-7-[(1R,6S)-2-oxa-5,8-diazabicyclo[4.3.0]non-8-yl]-1,4-dihydro-4-oxo-3-quinolinecarboxylic acid]

SMILES: CN1COc2c(N3CC4NCCOC4C3)c(F)cc3c(=O)c(C(=O)O)cn1c23 [Example 2, 9-Fluoro-3-methyl-10-((1S,6S)-2-oxa-5,8-diazabicyclo[4.3.0]non-8-yl)-7-oxo-2,3-dihydro-7H-pyrido[1,2,3-d.e][1,3,4]benzoxadiazine-6-carboxylic acid]
MIC [1]: 0.06 mg/L (≈ 0.154 µM)
Clearance % (H. felis ATCC 49179): 100%
Clearance (animals cleared / animals per group) (H. felis ATCC 49179): 5/5

melting point: 236 to 238 °C (dec.)
SMILES: O=C(O)c1cn([C@@H]2C[C@@H]2F)c2cc(N3C[C@@H]4NCCO[C@@H]4C3)c(F)cc2c1=O (mixture of isomers) [Example 15, 6-Fluoro-1-(cis-2-fluorocyclopropyl)-1,4-dihydro-7-((1R,6S)-2-oxa-5,8-diazabicyclo[4.3.0]non-8-yl)-4-oxo-3-quinolinecarboxylic acid]

melting point: 160 to 164 °C (dec.)
SMILES: O=C(O)c1cn([C@@H]2C[C@H]2F)c2c(Cl)c(N3C[C@@H]4NCCO[C@@H]4C3)c(F)cc2c1=O (mixture of isomers) [Example 20, 8-Chloro-6-fluoro-1-(trans-2-fluorocyclopropyl)-1,4-dihydro-7-((1R,6S)-2-oxa-5,8-diazabicyclo[4.3.0]non-8-yl)-4-oxo-3-quinolinecarboxylic acid]

melting point: 275 to 280 °C (dec.)
SMILES: Cl.O=C(O)c1cn([C@@H]2C[C@@H]2F)c2c(F)c(N3C[C@@H]4NCCO[C@@H]4C3)c(F)cc2c1=O

SMILES: N#Cc1c(N2CC3NCCOC3C2)c(F)cc2c(=O)c(C(=O)O)cn(C3CC3)c12 (centres unmarked) [Example 1A]
MIC [1]: 0.06 mg/L (≈ 0.151 µM)
Eradication of the bacterium (H. felis ATCC 49179; 10-day treatment of the mice with 2×10 mg/kg): eradication of the bacterium
Clearance % (H. felis ATCC 49179): 100%
Clearance (animals cleared / animals per group) (H. felis ATCC 49179): 5/5

melting point: 270 to 274 °C (dec.)
SMILES: O=C(O)c1cn([C@@H]2C[C@H]2F)c2cc(N3C[C@@H]4NCCO[C@@H]4C3)c(F)cc2c1=O (mixture of isomers) [Example 19, 6-Fluoro-1-(trans-2-fluorocyclopropyl)-1,4-dihydro-7-((1 R,6S)-2-oxa-5,8-diazabicyclo[4.3.0]non-8-yl)-4-oxo-3-quinolinecarboxylic acid]

SMILES: O=C(O)c1cn(C2CC2)c2c(Cl)c(N3C[C@@H]4CCCN[C@@H]4C3)c(F)cc2c1=O [BAY Y 3118, 8-chloro-1-cyclopropyl-7-([S,S]-2,8-diazabicyclo[4.3.0]non-8-yl)-6-fluoro-1,4-dihydro-4-oxo-3-quinolinecarboxylic acid, reference compound]
Death of animals on account of toxicity at eradicating treatment (H. felis ATCC 49179; mouse model, monotherapeutic treatment): a large part of the animals not dying on account of the toxicity of the compound
Eradication of H. felis in the mouse model, monotherapy (H. felis ATCC 49179; monotherapeutic treatment): no eradication of H. felis can be achieved

melting point: 310 to 314 °C (dec.)
SMILES: O=C(O)c1cn([C@@H]2C[C@H]2F)c2nc(N3C[C@@H]4NCCO[C@@H]4C3)c(F)cc2c1=O (mixture of isomers) [Example 21, 6-Fluoro-1-(trans-2-fluorocyclopropyl)-1,4-dihydro-7-((1R,6s)-2-oxa-5,8-diazabicyclo[4.3.0]non-8-yl)-4-oxo-1,8-naphthyridine-3-carboxylic acid]
